Measurements from a flash point compilation (Sun et al. 2020).

| SMILES | flash point [°C] |
| --- | --- |
| Cc1ccccc1[N+](=O)[O-] [1-methyl-2-nitrobenzene] | 106.00 |
| Cc1cccc([N+](=O)[O-])c1 [1-methyl-3-nitrobenzene] | 106.00 |
| O=[N+]([O-])c1cccc2ccccc12 [1-nitronaphthalene] | 164.00 |
| CCC[N+](=O)[O-] [1-nitropropane] | 34.00 |
| O=NN1CCCC1 [1-nitrosopyrrolidine] | 83.00 |
| c1nc[nH]n1 [1H-1,2,4-triazole] | 170.00 |
| O=CC(Cl)(Cl)Cl [2,2,2-trichloroacetaldehyde] | 75.00 |
| O=C(O)C(Br)Br [2,2-dibromoacetic acid] | 113.00 |
| Oc1ccc(Cl)c(Cl)c1Cl [2,3,4-trichlorophenol] | 62.00 |
| Oc1c(Cl)ccc(Cl)c1Cl [2,3,6-trichlorophenol] | 79.00 |
| Cc1cccc(N)c1C [2,3-dimethylaniline] | 97.00 |
| Oc1cc(Cl)c(Cl)cc1Cl [2,4,5-trichlorophenol] | 133.00 |
| CC1OC(C)OC(C)OC(C)O1 (stereo not drawn) [2,4,6,8-tetramethyl-1,3,5,7-tetraoxocane] | 36.00 |
| Oc1c(Cl)cc(Cl)cc1Cl [2,4,6-trichlorophenol] | 99.00 |
| CC1OC(C)OC(C)O1 (stereo not drawn) [2,4,6-trimethyl-1,3,5-trioxane] | 36.00 |
| CC(C)(C)c1cc(C(C)(C)C)c(O)c(C(C)(C)C)c1 [2,4,6-tritert-butylphenol] | 130.00 |
| Nc1ccc(Cl)cc1Cl [2,4-dichloroaniline] | 115.00 |
| Oc1ccc(Cl)cc1Cl [2,4-dichlorophenol] | 114.00 |
| Cc1ccc(N=C=O)cc1N=C=O [2,4-diisocyanato-1-methylbenzene] | 132.00 |
| Cc1ccc([N+](=O)[O-])c(C)c1 [2,4-dimethyl-1-nitrobenzene] | 107.00 |
| Nc1ccc([N+](=O)[O-])cc1[N+](=O)[O-] [2,4-dinitroaniline] | 224.00 |
| CC(C)(C)OOC(C)(C)CCC(C)(C)OOC(C)(C)C [2,5-bis(tert-butylperoxy)-2,5-dimethylhexane] | 85.00 |
| Cc1ccc(C)c(N)c1 [2,5-dimethylaniline] | 94.00 |
| Cc1cccc(C)c1N [2,6-dimethylaniline] | 91.00 |

| SMILES | flash point [°C] |
| --- | --- |
| NCCNCCO [2-(2-aminoethylamino)ethanol] | 102.00 |
| CCCCOCCOCCO [2-(2-butoxyethoxy)ethanol] | 78.00 |
| CCCCOCCOCCOC(C)=O [2-(2-butoxyethoxy)ethyl acetate] | 116.00 |
| COCCOCCO [2-(2-methoxyethoxy)ethanol] | 93.00 |
| BrCC1CO1 (stereo not drawn) [2-(bromomethyl)oxirane] | 56.00 |
| ClCC1CO1 (stereo not drawn) [2-(chloromethyl)oxirane] | 34.00 |
| C=CC(=O)OCCN(C)C [2-(dimethylamino)ethyl prop-2-enoate] | 29.00 |
| FCC1CO1 (stereo not drawn) [2-(fluoromethyl)oxirane] | 4.00 |
| C=CCOCC1CO1 (stereo not drawn) [2-(prop-2-enoxymethyl)oxirane] | 57.00 |
| CCCCOC(=O)c1ccccc1C(=O)OCc1ccccc1 [2-O-benzyl 1-O-butyl benzene-1,2-dicarboxylate] | 199.00 |
| CC(COc1ccc(Oc2ccccc2)cc1)Oc1ccccn1 (stereo not drawn) [2-[1-(4-phenoxyphenoxy)propan-2-yloxy]pyridine] | 119.00 |
| CCCCOCCOCCOCCO [2-[2-(2-butoxyethoxy)ethoxy]ethanol] | 143.00 |
| OCCN(CCO)CCO [2-[bis(2-hydroxyethyl)amino]ethanol] | 185.00 |
| CCOP(=O)(SC(C)CC)SC(C)CC (stereo not drawn) [2-[butan-2-ylsulfanyl(ethoxy)phosphoryl]sulfanylbutane] | 129.00 |
| CCN(CCO)CCO [2-[ethyl(2-hydroxyethyl)amino]ethanol] | 98.00 |
| Nc1cc(Cl)ccc1O [2-amino-4-chlorophenol] | 170.00 |
| Nc1ccc2c(c1)C(=O)c1ccccc1C2=O [2-aminoanthracene-9,10-dione] | 283.00 |
| OCCBr [2-bromoethanol] | 41.00 |
| Oc1ccccc1Br [2-bromophenol] | 42.00 |
| CCCCOCCO [2-butoxyethanol] | 61.00 |
| Nc1ccc([N+](=O)[O-])cc1Cl [2-chloro-4-nitroaniline] | 205.00 |
| Clc1cccc(C(Cl)(Cl)Cl)n1 [2-chloro-6-(trichloromethyl)pyridine] | 100.00 |
| CCc1cccc(CC)c1N(COC)C(=O)CCl [2-chloro-N-(2,6-diethylphenyl)-N-(methoxymethyl)acetamide] | 137.00 |

More lines, now with the values ahead:

| flash point [°C] | SMILES |
| --- | --- |
| 96.00 | O=[N+]([O-])c1ccccc1C(F)(F)F [1-nitro-2-(trifluoromethyl)benzene] |
| 143.00 | O=[N+]([O-])c1ccc(-c2ccccc2)cc1 [1-nitro-4-phenylbenzene] |
| 85.00 | CCCCCSCCCCC [1-pentylsulfanylpentane] |
| 82.00 | CC(=O)c1ccccc1 [1-phenylethanone] |
| 48.00 | CCCOCC(C)O (stereo not drawn) [1-propoxypropan-2-ol] |
| 78.00 | C1=Cc2ccccc2C1 [1H-indene] |
| 101.00 | CC1=CC(C)(C)Nc2ccccc21 [2,2,4-trimethyl-1H-quinoline] |
| -12.00 | CC(C)CC(C)(C)C [2,2,4-trimethylpentane] |
| 31.00 | CC(C)CCC(C)(C)C [2,2,5-trimethylhexane] |
| 240.00 | OCC(CO)(CO)CO [2,2-bis(hydroxymethyl)propane-1,3-diol] |
| 63.00 | COC(F)(F)C(Cl)Cl [2,2-dichloro-1,1-difluoro-1-methoxyethane] |
| 37.00 | CC(C)(C)CO [2,2-dimethylpropan-1-ol] |
| 64.00 | CC(C)(C)C(=O)O [2,2-dimethylpropanoic acid] |
| 63.00 | C=C(Cl)C(Cl)CCl (stereo not drawn) [2,3,4-trichlorobut-1-ene] |
| 210.00 | O=C(O)C(O)C(O)C(=O)O (stereo not drawn) [2,3-dihydroxybutanedioic acid] |
| 2.00 | CC(C)=CC(C)(C)C [2,4,4-trimethylpent-2-ene] |
| 46.00 | CC(C)(C)CC(C)(C)S [2,4,4-trimethylpentane-2-thiol] |
| 63.00 | Nc1ccc(F)cc1F [2,4-difluoroaniline] |
| 113.00 | O=S1(=O)CC=CC1 [2,5-dihydrothiophene 1,1-dioxide] |
| 24.00 | CC1COC(C)CO1 (stereo not drawn) [2,5-dimethyl-1,4-dioxane] |
| 33.00 | CC1=CCC2CC1C2(C)C (stereo not drawn) [2,6,6-trimethylbicyclo[3.1.1]hept-2-ene] |
| 85.00 | CC(C)=CC(=O)C=C(C)C [2,6-dimethylhepta-2,5-dien-4-one] |
| 74.00 | CC(C)CC(O)CC(C)C [2,6-dimethylheptan-4-ol] |

| flash point [°C] | SMILES |
| --- | --- |
| 44.00 | CC1CNCC(C)O1 (stereo not drawn) [2,6-dimethylmorpholine] |
| 74.00 | Cc1cccc(C)c1O [2,6-dimethylphenol] |
| 127.00 | Cc1cc(C(C)(C)C)c(O)c(C(C)(C)C)c1 [2,6-ditert-butyl-4-methylphenol] |
| 270.00 | c1ccc2sc(SSc3nc4ccccc4s3)nc2c1 [2-(1,3-benzothiazol-2-yldisulfanyl)-1,3-benzothiazole] |
| 127.00 | NCCOCCO [2-(2-aminoethoxy)ethanol] |
| 232.00 | O=C(OCCOCCOC(=O)c1ccccc1)c1ccccc1 [2-(2-benzoyloxyethoxy)ethyl benzoate] |
| 96.00 | CCOCCOCCO [2-(2-ethoxyethoxy)ethanol] |
| 97.00 | CCCCC(CC)COCC1CO1 (stereo not drawn) [2-(2-ethylhexoxymethyl)oxirane] |
| 74.00 | COC(C)COC(C)CO (stereo not drawn) [2-(2-methoxypropoxy)propan-1-ol] |
| 86.00 | COC(C)COC(C)COC(C)=O (stereo not drawn) [2-(2-methoxypropoxy)propyl acetate] |
| 101.00 | C=C(C)C(=O)OCCOC(=O)C(=C)C [2-(2-methylprop-2-enoyloxy)ethyl 2-methylprop-2-enoate] |
| 78.00 | C=CC(=O)OCCOCCOC(=O)C=C [2-(2-prop-2-enoyloxyethoxy)ethyl prop-2-enoate] |
| 96.00 | Cc1ccc(C(C)(C)O)cc1 [2-(4-methylphenyl)propan-2-ol] |
| 121.00 | COCC(C)OCC(C)OC(C)CO (stereo not drawn) [2-[1-(1-methoxypropan-2-yloxy)propan-2-yloxy]propan-1-ol] |
| 174.00 | CC(=O)OCCOCCOCCOC(C)=O [2-[2-(2-acetyloxyethoxy)ethoxy]ethyl acetate] |
| 111.00 | COC(C)COC(C)COC(C)CO (stereo not drawn) [2-[2-(2-methoxypropoxy)propoxy]propan-1-ol] |
| 161.00 | COC(O)COCCOCCOCCO (stereo not drawn) [2-[2-[2-(2-hydroxyethoxy)ethoxy]ethoxy]-1-methoxyethanol] |
| 102.00 | CC(C)(C)c1ccc(OCC2CO2)cc1 (stereo not drawn) [2-[(4-tert-butylphenoxy)methyl]oxirane] |
| 96.00 | CC(=O)OCCOC(C)=O [2-acetyloxyethyl acetate] |
| 67.00 | CC(C)(N)CO [2-amino-2-methylpropan-1-ol] |
| 63.00 | CC(N)CO (stereo not drawn) [2-aminopropan-1-ol] |
| 152.00 | O=C1OC(=O)c2ccccc21 [2-benzofuran-1,3-dione] |
| 112.00 | CCC(C)c1ccccc1O (stereo not drawn) [2-butan-2-ylphenol] |
